From patent US9670211B2, “Aza-oxo-indoles for the treatment and prophylaxis of respiratory syncytial virus infection” (Hoffmann-La Roche Inc., priority 2013, dated 2017)

test system: RSV Long strain; assay: Viral Cytopathic Effect (CPE) Assay; format: cell-based; conditions: human respiratory syncytial virus, 144 h; RSV Long strain (ATCC), cell viability after 6 days by Cell Counting kit-8
Method: Viral Cytopathic Effect (CPE) Assay
To measure anti-RSV activity of compounds, 96-well plates are seeded with 6×10^3 cells per well in Dulbecco's modified Eagle's medium (DMEM) containing 10% fetal bovine serum (FBS). Cells are infected the next day with sufficient RSV Long strain (ATCC) to produce an approximately 80-90% cytopathic effect after 6 days, in the presence of serial half-log diluted compound in a total volume of 200 μL per well. The viability of cells is assessed after 6 days using Cell Counting kit-8 (Dojindo Molecular Technologies). The absorbance at 450 nm and referenced at 630 nm is measured to determine 50% effective concentration (EC50).

| Structure (SMILES) | EC50 [nM] |
| --- | --- |
| O=C1N(Cc2nc3cc(Cl)ccc3n2C2CCC(O)C2)c2cnccc2C12CC2 (centres unmarked) [Example 2-8, 1′-{[5-Chloro-1-(3-hydroxycyclopentyl)-1H-benzimidazol-2-yl]methyl}spiro[cyclopropane-1,3′-pyrrolo[2,3-c]pyridin]-2′(1′H)-one] | 11 |
| CS(=O)(=O)[C@H]1C[C@@H](n2c(CN3C(=O)C4(CC4)c4ccncc43)nc3cc(Cl)ccc32)C1 [Example 1-1, 1′-({5-Chloro-1-[cis-3-(methylsulfonyl)cyclobutyl]-1H-benzimidazol-2-yl}methyl)spiro[cyclopropane-1,3′-pyrrolo[2,3-c]pyridin]-2′(1′H)-one] | 10 |
| CC(C)(C)OC(=O)N1CCC(n2c(CN3C(=O)C4(CC4)c4ccncc43)nc3cc(Cl)ccc32)C1 (centres unmarked) [Example 2-15, tert-Butyl 3-{5-chloro-2-[(2′-oxospiro[cyclopropane-1,3′-pyrrolo[2,3-c]pyridin]-1′(2′H)-yl)methyl]-1H-benzimidazol-1-yl}pyrrolidine-1-carboxylate] | 31 |
| O=C1N(Cc2nc3cc(Cl)ccc3n2C2CCC(O)CC2)c2cnccc2C12CC2 (centres unmarked) [Example 2-7, 1′-{[5-Chloro-1-(4-hydroxycyclohexyl)-1H-benzimidazol-2-yl]methyl}spiro[cyclopropane-1,3′-pyrrolo[2,3-c]pyridin]-2′(1′H)-one] | 1.1 |
| O=C1N(Cc2nc3cc(Cl)ccc3n2C2C[S+]([O-])C2)c2cnccc2C12CC2 (centres unmarked) [Example 5, 1′-{[5-Chloro-1-(1-oxidothietan-3-yl)-1H-benzimidazol-2-yl]methyl}spiro[cyclopropane-1,3′-pyrrolo[2,3-c]pyridin]-2′(1′H)-one] | 5 |
| O=C1N(Cc2nc3cc(Cl)ccc3n2C2CCOC2)c2cnccc2C12CC2 (centres unmarked) [Example 2-14, 1′-{[5-Chloro-1-(tetrahydrofuran-3-yl)-1H-benzimidazol-2-yl]methyl}spiro[cyclopropane-1,3′-pyrrolo[2,3-c]pyridin]-2′(1′H)-one] | 6 |
| O=C1N(Cc2nc3cc(Cl)ccc3n2C2CC3(C2)CS(=O)(=O)C3)c2cnccc2C12CC2 [Example 2-1, 1′-{[5-Chloro-1-(2,2-dioxido-2-thiaspiro[3.3]hept-6-yl)-1H-benzimidazol-2-yl]methyl}spiro[cyclopropane-1,3′-pyrrolo[2,3-c]pyridin]-2′(1′H)-one] | 4 |
| C[C@]1(O)C[C@H](n2c(CN3C(=O)C4(CC4)c4ccncc43)nc3cc(Cl)ccc32)C1 [Example 2-17, 1′-{[5-Chloro-1-(trans-3-hydroxy-3-methylcyclobutyl)-1H-benzimidazol-2-yl]methyl}spiro[cyclopropane-1,3′-pyrrolo[2,3-c]pyridin]-2′(1′H)-one] | 5 |
| O=C1N(Cc2nc3cc(Cl)ccc3n2C2CC(F)(F)C2)c2cnccc2C12CC2 [Example 2-5, 1′-{[5-Chloro-1-(3,3-difluorocyclobutyl)-1H-benzimidazol-2-yl]methyl}spiro[cyclopropane-1,3′-pyrrolo[2,3-c]pyridin]-2′(1′H)-one] | 16 |
| O=C1N(Cc2cc3cc(Cl)cc(F)c3n2C2CCS(=O)(=O)C2)c2cnccc2C12CC2 (centres unmarked) [Example 17, 1′-{[5-Chloro-1-(1,1-dioxidotetrahydrothiophen-3-yl)-7-fluoro-1H-indol-2-yl]methyl}spiro[cyclopropane-1,3′-pyrrolo[2,3-c]pyridin]-2′(1′H)-one] | 0.6 |
| O=C1N(Cc2nc3cc(Cl)ccc3n2C2COC2)c2cnccc2C12CC2 [Example 2-4, 1′-{[5-Chloro-1-(oxetan-3-yl)-1H-benzimidazol-2-yl]methyl}spiro[cyclopropane-1,3′-pyrrolo[2,3-c]pyridin]-2′(1′H)-one] | 70 |
| O=C1N(Cc2cc3cc(Cl)cnc3n2C2CCS(=O)(=O)C2)c2cnccc2C12CC2 (centres unmarked) [Example 19, 1′-{[5-Chloro-1-(1,1-dioxidotetrahydrothiophen-3-yl)-1H-pyrrolo[2,3-b]pyridin-2-yl]methyl}spiro[cyclopropane-1,3′-pyrrolo[2,3-c]pyridin]-2′(1′H)-one] | 6 |
| O=C1N(Cc2nc3cc(Cl)ccc3n2[C@H]2CC[C@@H](C(=O)O)CC2)c2cnccc2C12CC2 [Example 2-12, cis-4-{5-Chloro-2-[(2′-oxospiro[cyclopropane-1,3′-pyrrolo[2,3-c]pyridin]-1′(2′H)-yl)methyl]-1H-benzimidazol-1-yl}cyclohexanecarboxylic acid] | 510 |
| O=C1N(Cc2nc3cc(Cl)ccc3n2C2CCS(=O)(=O)CC2)c2cnccc2C12CC2 [Example 2-2, 1′-{[5-Chloro-1-(1,1-dioxidotetrahydro-2H-thiopyran-4-yl)-1H-benzimidazol-2-yl]methyl}spiro[cyclopropane-1,3′-pyrrolo[2,3-c]pyridin]-2′(1′H)-one] | 6 |
| O=C1N(Cc2nc3cc(Cl)ccc3n2C2CNS(=O)(=O)C2)c2cnccc2C12CC2 (centres unmarked) [Example 15, 1′-{[5-Chloro-1-(1,1-dioxido-1,2-thiazolidin-4-yl)-1H-benzimidazol-2-yl]methyl}spiro[cyclopropane-1,3′-pyrrolo[2,3-c]pyridin]-2′(1′H)-one] | 1.6 |
| O=C1N(Cc2nc3cc(Cl)ccc3n2C2CNC3(COC3)C2)c2cnccc2C12CC2 (centres unmarked) [Example 16, 1′-{[5-Chloro-1-(2-oxa-5-azaspiro[3.4]oct-7-yl)-1H-benzimidazol-2-yl]methyl}spiro[cyclopropane-1,3′-pyrrolo[2,3-c]pyridin]-2′(1′H)-one] | 2.2 |
| O=C1CC(n2c(CN3C(=O)C4(CC4)c4ccncc43)nc3cc(Cl)ccc32)CCN1 (centres unmarked) [Example 2-10, 1′-{[5-Chloro-1-(2-oxopiperidin-4-yl)-1H-benzimidazol-2-yl]methyl}spiro[cyclopropane-1,3′-pyrrolo[2,3-c]pyridin]-2′(1′H)-one] | 5 |
| O=C1N(Cc2cc3cc(Cl)ccc3n2C2CCS(=O)(=O)C2)c2cnccc2C12CC2 (centres unmarked) [Example 18, 1′-{[5-Chloro-1-(1,1-dioxidotetrahydrothiophen-3-yl)-1H-indol-2-yl]methyl}spiro[cyclopropane-1,3′-pyrrolo[2,3-c]pyridin]-2′(1′H)-one] | 1.9 |

Continued, values first:

| EC50 [nM] | Structure (SMILES) |
| --- | --- |
| 1.6 | O=C1N(Cc2nc3cc(Cl)ccc3n2[C@@H]2CCS(=O)(=O)C2)c2cnccc2C12CC2 [Example 3-3, 1′-({5-Chloro-1-[(3R)-1,1-dioxidotetrahydrothiophen-3-yl]-1H-benzimidazol-2-yl}methyl)spiro[cyclopropane-1,3′-pyrrolo[2,3-c]pyridin]-2′(1′H)-one] |
| 9 | O=C1CC(n2c(CN3C(=O)C4(CC4)c4ccncc43)nc3cc(Cl)ccc32)CN1 (centres unmarked) [Example 7-2, 1′-{[5-Chloro-1-(5-oxopyrrolidin-3-yl)-1H-benzimidazol-2-yl]methyl}spiro[cyclopropane-1,3′-pyrrolo[2,3-c]pyridin]-2′(1′H)-one] |
| 138 | O=C1N(Cc2nc3cc(Cl)ccc3n2C2CNC2)c2cnccc2C12CC2 [Example 10-2, 1′-{[1-(Azetidin-3-yl)-5-chloro-1H-benzimidazol-2-yl]methyl}spiro[cyclopropane-1,3′-pyrrolo[2,3-c]pyridin]-2′(1′H)-one] |
| 6.5 | O=C1N(Cc2nc3cc(Cl)ccc3n2C2CS(=O)(=O)C2)c2cnccc2C12CC2 [Example 4-1, 1′-{[5-Chloro-1-(1,1-dioxidothietan-3-yl)-1H-benzimidazol-2-yl]methyl}spiro[cyclopropane-1,3′-pyrrolo[2,3-c]pyridin]-2′(1′H)-one] |
| 1.1 | CCN1CC(n2c(CN3C(=O)C4(CC4)c4ccncc43)nc3cc(Cl)ccc32)CC1=O (centres unmarked) [Example 8-2, 1′-{[5-Chloro-1-(1-ethyl-5-oxopyrrolidin-3-yl)-1H-benzimidazol-2-yl]methyl}spiro[cyclopropane-1,3′-pyrrolo[2,3-c]pyridin]-2′(1′H)-one] |
| 207 | CCC1(CC)C(=O)N(Cc2nc3cc(Cl)ccc3n2C2CS(=O)(=O)C2)c2cnccc21 [Example 4-3, 1-{[5-Chloro-1-(1,1-dioxidothietan-3-yl)-1H-benzimidazol-2-yl]methyl}-3,3-diethyl-1,3-dihydro-2H-pyrrolo[2,3-c]pyridin-2-one] |
| 6 | CN1CC(n2c(CN3C(=O)C4(CC4)c4ccncc43)nc3cc(Cl)ccc32)CC1=O (centres unmarked) [Example 8-1, 1′-{[5-Chloro-1-(1-methyl-5-oxopyrrolidin-3-yl)-1H-benzimidazol-2-yl]methyl}spiro[cyclopropane-1,3′-pyrrolo[2,3-c]pyridin]-2′(1′H)-one] |
| 78 | O=C1N(Cc2nc3cc(Cl)ccc3n2C2CCNCC2)c2cnccc2C12CC2 [Example 10-1, 1′-{[5-Chloro-1-(piperidin-4-yl)-1H-benzimidazol-2-yl]methyl}spiro[cyclopropane-1,3′-pyrrolo[2,3-c]pyridin]-2′(1′H)-one] |
| 10 | O=C1N(Cc2nc3cc(Cl)ccc3n2[C@H]2CCS(=O)(=O)C2)c2cnccc2C12CC2 [Example 3-2, 1′-({5-Chloro-1-[(3S)-1,1-dioxidotetrahydrothiophen-3-yl]-1H-benzimidazol-2-yl}methyl)spiro[cyclopropane-1,3′-pyrrolo[2,3-c]pyridin]-2′(1′H)-one] |
| 0.7 | O=C1N(Cc2nc3cc(Cl)cc(F)c3n2[C@@H]2CCS(=O)(=O)C2)c2cnccc2C12CC2 [Example 9-2, 1′-({5-Chloro-1-[(3R)-1,1-dioxidotetrahydrothiophen-3-yl]-7-fluoro-1H-benzimidazol-2-yl}methyl)spiro[cyclopropane-1,3′-pyrrolo[2,3-c]pyridin]-2′(1′H)-one] |
| 95 | CC1(C)C(=O)N(Cc2nc3cc(Cl)ccc3n2C2CS(=O)(=O)C2)c2cnccc21 [Example 4-2, 1-{[5-Chloro-1-(1,1-dioxidothietan-3-yl)-1H-benzimidazol-2-yl]methyl}-3,3-dimethyl-1,3-dihydro-2H-pyrrolo[2,3-c]pyridin-2-one] |
